As a reminder, the Kd is the free concentration of one partner at which half of the binding sites on the other are occupied at equilibrium, for simple one-to-one binding. Lower therefore signals tighter binding.

The assay deals with T1, IKKβ (Homo sapiens, UniProt O14920).
T1 sequence (O14920 1-756): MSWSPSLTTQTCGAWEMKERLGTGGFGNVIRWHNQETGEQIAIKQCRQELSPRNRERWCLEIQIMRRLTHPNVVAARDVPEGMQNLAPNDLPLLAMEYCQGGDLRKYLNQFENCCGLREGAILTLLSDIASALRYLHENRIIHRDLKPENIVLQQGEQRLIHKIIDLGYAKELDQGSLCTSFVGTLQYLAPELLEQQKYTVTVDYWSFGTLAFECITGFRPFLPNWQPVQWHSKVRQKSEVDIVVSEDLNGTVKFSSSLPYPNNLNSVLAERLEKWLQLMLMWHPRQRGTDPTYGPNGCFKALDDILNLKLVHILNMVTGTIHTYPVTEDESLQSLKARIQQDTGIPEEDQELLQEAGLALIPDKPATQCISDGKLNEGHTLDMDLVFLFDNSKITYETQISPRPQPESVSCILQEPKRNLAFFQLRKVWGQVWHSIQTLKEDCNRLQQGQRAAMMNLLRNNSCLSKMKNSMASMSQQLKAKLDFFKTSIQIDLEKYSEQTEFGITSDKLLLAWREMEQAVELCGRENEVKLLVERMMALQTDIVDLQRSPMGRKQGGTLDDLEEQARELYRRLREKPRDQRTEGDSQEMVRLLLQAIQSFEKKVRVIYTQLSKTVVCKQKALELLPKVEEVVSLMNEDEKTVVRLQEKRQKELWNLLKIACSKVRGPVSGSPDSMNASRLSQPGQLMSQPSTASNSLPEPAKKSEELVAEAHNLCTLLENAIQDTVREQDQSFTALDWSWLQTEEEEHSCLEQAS
The experiment in a line: SPR. The class given is binding.

For `CC(C)C1=CC2=CC[C@@H]3[C@](C)(CCC[C@@]3(C)C(=O)O)[C@H]2CC1` [AA, Abietic acid], binding was characterised by a dissociation constant (Kd) of 32 µM.

The values above are taken from paper PMC6590626 (OncoTargets and therapy, 2019).
